According to patent US4613355A, “Antibiotic having herbicidal activity” (Satoshi Omura, priority 1983, dated 1986):
Converted amounts (≈) assume the structure as drawn.

How the values were obtained:
[1] = test system: Rumex obtusifolius; assay: Foliage treatment with different salts (Example 11); type: in vivo; set-up: key: 0 indicates no effect; 5 indicates complete kill; details: Rumex obtusifolius (Plant No. 14), 1000 liter per hectare
Description: Aqueous solutions containing different salts of Phosalacine at different concentrations as active ingredients and 0.1% of octylphenylpolyoxy ethanol as surfactant were applied at a rate of 1000 liter per hectare to Rumex obtusifolius (Plant No. 14) at a certain stage of growth. 21 days after foliage treatment, damage to the plant was visually assessed on a scale of 0 to 5 as hereinbefore described. The salts used were prepared by the methods described in the reference mentioned above.

[2] = test system: Killifishes (Medaka); assay: Acute toxicity to fish, survival ratio (Example 13); type: in vivo; details: for Survival ratio (%): killifish, 100 ppm
Description: Killifishes (Japanese name, Medaka), were obtained from a market and maintained in a water bath at 25±2° C. for a week. Then the fishes (each group consisting of 10 fishes) were placed in water baths containing the test compounds at given concentrations as shown in the following Table. 24 and 48 hours after this, the survival ratio (%) of each group was visually counted to assess the acute toxity.

[3] = test system: Staphylococcus aureus KB210; assay: MIC by agar dilution method; type: cell-based; details: medium A Davis's minimal medium (pH 7.0)
[4] = test system: Staphylococcus aureus KB199; assay: MIC by agar dilution method; type: cell-based; details: medium A Davis's minimal medium (pH 7.0)
[5] = test system: Bacillus subtilis KB211; assay: MIC by agar dilution method; type: cell-based
[6] = test system: Bacillus cereus KB143; assay: MIC by agar dilution method; type: cell-based; details: medium A Davis's minimal medium (pH 7.0)
[7] = test system: Micrococcus luteus KB212; assay: MIC by agar dilution method; type: cell-based; details: medium A Davis's minimal medium (pH 7.0)
[8] = test system: Escherichia coli KB213; assay: MIC by agar dilution method; type: cell-based; details: medium A Davis's minimal medium (pH 7.0)
Text: The minimum inhibitory concentrations (MIC values) of Phosalacine were investigated in conventional manner by the agar dilution method and the results are indicated in the following Table, from which it is apparent that Phosalacine is active against various Gram-positive and Gram-negative bacteria and fungi.
[Notes: A . . . Davis's minimal medium (pH 7.0), B . . . Dextrose Czapek'

[9] = test system: Escherichia coli KB176; assay: MIC by agar dilution method; type: cell-based; details: medium A Davis's minimal medium (pH 7.0)
[10] = test system: Klebsiella pneumoniae KB214; assay: MIC by agar dilution method; type: cell-based; details: medium A Davis's minimal medium (pH 7.0)
[11] = test system: Erwinia aroideae KB148; assay: MIC by agar dilution method; type: cell-based; details: medium A Davis's minimal medium (pH 7.0)
[12] = test system: Proteus vulgaris KB127; assay: MIC by agar dilution method; type: cell-based; details: medium A Davis's minimal medium (pH 7.0)
[13] = test system: Candida albicans KFl; assay: MIC by agar dilution method; type: cell-based; details: medium B Dextrose Czapek' medium
[14] = test system: Aspergillus niger KF105; assay: MIC by agar dilution method; type: cell-based; details: medium B Dextrose Czapek' medium
[15] = test system: Mucor racemosus KF223; assay: MIC by agar dilution method; type: cell-based; details: medium B Dextrose Czapek' medium
[16] = test system: Piricularia oryzae KF180; type: cell-based; details: medium B Dextrose Czapek' medium
[17] = test system: various plants; assay: Inhibition of regrowth one month after foliage treatment (Example 8); type: in vivo; details: visually assessed, compared with SF-1293
Description: Aqueous solutions of Phosalacine (Na salt) at different concentrations were applied at a rate of 1500 liters per hectare to naturally occurring plants or plants which were cultured on plates as shown in the following Table at certain stages of growth. The Phosalacine applied contained 0.1% of octylphenylpolyoxy ethanol as surfactant. 7 and 14 days after the foliage treatment, damage to the plants was visually assessed on a scale of from 0 to 5 where 0 indicates no effect and 5 indicates complete kill. […] One month after the foliage treatment, the inhibition of regrowth of the plants was visually investigated.
One month after the foliage treatment, the inhibition of regrowth of the plants was visually assessed.

[18] = test system: Chamaecyparis obtusa; assay: Foliage treatment of woody plants (Example 10); type: in vivo; details: even when applied at a concentration of 0.5%
Text: (§1) Aqueous solutions containing Phosalacine (Na salt) at different concentrations and 0.1% of octylphenylpolyoxy ethanol as surfactant were applied at a rate of 1500 liter per hectare to woody plants of about 60-70 cm in height. 7 and 14 days after the foliage treatment, damage to the plants was visually assessed on a scale of from 0 to 5 (cf. Example 7).

[19] = test system: Cryptomeria japonica; assay: Foliage treatment of woody plants (Example 10); type: in vivo; details: in vivo
Text: as §1

[20] = Acute toxicity in mice per os, body weight (Example 14); type: in vivo, Mice ICR (RJ) strain; details: for Body weight: 500 mg/kg per os
Description: Mice [ICR (RJ) strain; female; 6 weeks after birth; each group consisting of 10 mice] were used as test animals to investigate the acute toxity of Phosalacine in mice. A 1% aqueous solution (free acid) was forcibly administered per os to each animal and the body weight of each animal was measured 7 and 14 days after administration. Separately, a similar test was effected by administering Phosalacine (free acid) at a dose of 100 mg/kg.

[21] = Physico-chemical characteristics: acid/base nature; type: physicochemical
[22] = test system: Digitaria adscendens; assay: Foliage treatment of seedlings in pots (Example 7); type: in vivo; details: 10 days after foliage treatment, 1000 liter per hectare
Description: Upland soil was put in a pot of 10 cm diameter and the seeds of Digitaria adscendens were sown in the soil at a depth of 1 cm from the surface. When the height of the seedlings was about 10 cm, aqueous solutions of the test compounds as shown in the following Table were uniformly sprayed on the plants at a rate of 1.2 ml per plant, equivalent to 1000 liter per hectare. 10 days after the foliage treatment, damage to plants was visually assessed on a scale of from 0 to 10, where 0 indicates no effect and 10 indicates complete kill.

## CC(C)CC(NC(=O)C(C)NC(=O)C(N)CCP(C)(=O)[O-])C(=O)[O-].[K+].[K+] (centres unmarked) [Di Ka salt]
[1]; 0.05%
  Damage to plants after 21 days, scale 0 to 5: 3
[1]; 0.1%
  Damage to plants after 21 days, scale 0 to 5: 5

## CC(C)CC(NC(=O)C(C)NC(=O)C(N)CCP(C)(=O)[O-])C(=O)[O-].[Na+].[Na+] (centres unmarked) [Di Na salt]
[1]; 0.05%
  Damage to plants after 21 days, scale 0 to 5: 3
[1]; 0.1%
  Damage to plants after 21 days, scale 0 to 5: 5

## CPCC[C@H](N)C(=O)O (stereo partly drawn) [L-2-amino-4-methylphosphino butyric acid, reference compound]
[2]; 24 hours
  Survival ratio (%): 0%
[2]; 48 hours
  Survival ratio (%): 0%

## CC(C)CC(NC(=O)C(C)NC(=O)C(N)CCP(C)(=O)O)C(=O)O.CC(C)N (centres unmarked) [Mono isopropylamine salt]
[1]; 0.05%
  Damage to plants after 21 days, scale 0 to 5: 3
[1]; 0.1%
  Damage to plants after 21 days, scale 0 to 5: 5

## CC(C)CC(NC(=O)C(C)NC(=O)C(N)CCP(C)(=O)O)C(=O)O.CCCCN (centres unmarked) [Mono n-butylamine salt]
[1]; 0.05%
  Damage to plants after 21 days, scale 0 to 5: 3
[1]; 0.1%
  Damage to plants after 21 days, scale 0 to 5: 5

## CC(C)C[C@H](NC(=O)[C@H](C)NC(=O)[C@@H](N)CCP(C)(=O)O)C(=O)O [Phosalacine, phosphinothricyl-alanyl leucine]
[3]
  MIC: 0.4 µg/mL (≈ 1.09 µM)
[4]
  MIC: 0.2 µg/mL (≈ 0.547 µM)
[5]; Bacillus subtilis KB211, medium A Davis's minimal medium (pH 7.0)
  MIC: 0.4 µg/mL (≈ 1.09 µM)
[5]; synthetic media
  Effect of glutamine on activity against Bacillus subtilis: competitively antagonised by glutamine
[6]
  MIC: 0.4 µg/mL (≈ 1.09 µM)
[7]
  MIC: 6.25 µg/mL (≈ 17.1 µM)
[8]
  MIC: 12.5 µg/mL (≈ 34.2 µM)
[9]
  MIC: 25 µg/mL (≈ 68.4 µM)
[10]
  MIC: 25 µg/mL (≈ 68.4 µM)
[11]
  MIC: < 0.05 µg/mL
[12]
  MIC: 25 µg/mL (≈ 68.4 µM)
[13]
  MIC: > 100 µg/mL
[14]
  MIC: > 100 µg/mL
[15]
  MIC: 6.25 µg/mL (≈ 17.1 µM)
[16]
  MIC: 0.1 µg/mL (≈ 0.274 µM)
[17]
  inhibition of regrowth of the plants: equal or superior to that of SF-1293
[18]
  herbicidal activity against Chamaecyparis obtusa: not herbicidally active
[19]
  herbicidal activity against Cryptomeria japonica: relatively low herbicidal activity
[2]; fish
  acute toxity against fish, comparison: less than that of glyphosate and SF-1293
[20]; After 0 days
  Body weight: 23.9 g
[20]; After 7 days
  Body weight: 24.5 g
[20]; After 14 days
  Body weight: 26.2 g
[20]; dose of 100 mg/kg
  change of body weight: No significant change of body weight
[20]; per os
  acute toxity to mice: very low
[21]
  Acid/base nature: Amphoteric

## CC(C)C[C@H](NC(=O)[C@H](C)NC(=O)[C@@H](N)CCP(C)(=O)O)C(=O)O.CCNCC [monodiethylamine salt]
[22]; Concentration 0.01 ppm
  damage to plants, scale 0 to 10: 5 (50)
[22]; Concentration 0.03 ppm
  damage to plants, scale 0 to 10: 10 (100)
[22]; Concentration 0.1 ppm
  damage to plants, scale 0 to 10: 10 (100)
